Consider 15 compounds from ChEMBL document CHEMBL2439953, “Dimeric argininamide-type neuropeptide Y receptor antagonists: chiral discrimination between Y1 and Y4 receptors” (Bioorg Med Chem, 2013).

SMILES strings stand for the structures. pKi: −log10 of the molar value. Some results are limits rather than exact numbers.

Assay [1] addresses T1, Neuropeptide Y receptor type 4 (Homo sapiens, UniProt P50391). Description: Antagonist activity at human neuropeptide Y receptor type 4 expressed in CHO cells co-expressing Gqi5-mtAEQ assessed as inhibition of hPP-induced calcium mobilization by Aequorin assay. The class given is functional, cell-based.
The target in assay [2] is T2, Neuropeptide Y receptor type 1 (Homo sapiens) (UniProt P25929).
T2 sequence (whole entry): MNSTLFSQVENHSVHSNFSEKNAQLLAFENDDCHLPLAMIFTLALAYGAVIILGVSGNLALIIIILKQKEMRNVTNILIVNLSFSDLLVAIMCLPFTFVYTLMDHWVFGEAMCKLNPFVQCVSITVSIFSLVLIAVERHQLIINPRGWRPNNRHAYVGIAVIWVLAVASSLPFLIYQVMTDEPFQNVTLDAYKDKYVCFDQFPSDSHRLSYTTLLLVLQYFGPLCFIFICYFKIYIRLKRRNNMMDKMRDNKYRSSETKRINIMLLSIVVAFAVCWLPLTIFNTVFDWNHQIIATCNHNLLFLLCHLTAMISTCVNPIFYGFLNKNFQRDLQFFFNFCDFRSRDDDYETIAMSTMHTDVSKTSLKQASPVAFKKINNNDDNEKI
Description: Antagonist activity at neuropeptide Y receptor type 1 in HEL assessed as inhibition of pNPY-induced calcium mobilization by Fura-2 calcium assay. The class given is functional. (A change in cytosolic calcium serves as a functional read-out for many receptors and channels.)

Assay [3] addresses T3, Neuropeptide Y receptor type 5 (Homo sapiens, UniProt Q15761).
T3 sequence (Q15761 whole entry): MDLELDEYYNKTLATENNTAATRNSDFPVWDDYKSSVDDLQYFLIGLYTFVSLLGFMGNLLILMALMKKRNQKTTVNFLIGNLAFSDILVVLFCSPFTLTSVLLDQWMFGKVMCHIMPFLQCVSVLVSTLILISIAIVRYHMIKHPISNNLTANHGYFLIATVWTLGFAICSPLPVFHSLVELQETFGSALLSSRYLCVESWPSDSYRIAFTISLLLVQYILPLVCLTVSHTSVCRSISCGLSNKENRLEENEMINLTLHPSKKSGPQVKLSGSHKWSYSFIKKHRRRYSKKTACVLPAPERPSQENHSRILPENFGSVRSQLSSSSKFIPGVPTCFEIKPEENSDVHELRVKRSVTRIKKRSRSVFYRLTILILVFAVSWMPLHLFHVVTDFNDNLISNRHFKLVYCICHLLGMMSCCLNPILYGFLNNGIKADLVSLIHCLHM
Nature of the assay: Binding affinity to human neuropeptide Y receptor type 5 receptor expressed in HEC-1B cells using Cy5-pNPY by flow cytometric analysis. The class given is cell-based. (In general: A flow cytometer gives signals particle by particle.)

Assay [4] deals with T1, Neuropeptide Y receptor type 4. Description: Binding affinity to human neuropeptide Y receptor type 4 receptor expressed in CHO cells using Cy5-[K4]-hPP by flow cytometric analysis. The format is cell-based.
In assay [5] the target is T4, Neuropeptide Y receptor type 1 (Homo sapiens, UniProt P25929).
T4 sequence (P25929 whole entry): T2 sequence (whole entry)
Description: Displacement of [3H]UR-MK114 from human neuropeptide Y receptor type 1 expressed in human SK-N-MC cells. The class given is cell-based. On the technique in general: Loss of bound radioactivity is the signal in a displacement assay; it reports binding, not function.

The target in assay [6] is T5, Neuropeptide Y receptor type 2 (Homo sapiens, UniProt P49146).
T5 sequence (P49146 whole entry): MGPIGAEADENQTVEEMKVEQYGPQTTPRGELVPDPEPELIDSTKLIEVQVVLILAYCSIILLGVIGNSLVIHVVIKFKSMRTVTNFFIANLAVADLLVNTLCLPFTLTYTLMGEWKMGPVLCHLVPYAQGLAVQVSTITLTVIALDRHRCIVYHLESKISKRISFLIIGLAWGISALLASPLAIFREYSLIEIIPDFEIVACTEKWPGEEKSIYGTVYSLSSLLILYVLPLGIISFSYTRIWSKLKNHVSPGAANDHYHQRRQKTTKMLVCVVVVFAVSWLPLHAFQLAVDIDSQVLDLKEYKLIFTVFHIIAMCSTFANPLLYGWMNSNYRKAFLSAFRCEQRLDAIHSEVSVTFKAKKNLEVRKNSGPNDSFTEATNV
Description: Binding affinity to human neuropeptide Y receptor type 2 receptor expressed in CHO cells using Cy5-pNPY by flow cytometric analysis. The class given is cell-based.

Assay [7] deals with T4, Neuropeptide Y receptor type 1. Nature of the assay: Displacement of [3H]UR-MK114 from human neuropeptide Y receptor type 1 expressed in human MCF7 cells. The format is cell-based.

T1 sequence (P50391 whole entry): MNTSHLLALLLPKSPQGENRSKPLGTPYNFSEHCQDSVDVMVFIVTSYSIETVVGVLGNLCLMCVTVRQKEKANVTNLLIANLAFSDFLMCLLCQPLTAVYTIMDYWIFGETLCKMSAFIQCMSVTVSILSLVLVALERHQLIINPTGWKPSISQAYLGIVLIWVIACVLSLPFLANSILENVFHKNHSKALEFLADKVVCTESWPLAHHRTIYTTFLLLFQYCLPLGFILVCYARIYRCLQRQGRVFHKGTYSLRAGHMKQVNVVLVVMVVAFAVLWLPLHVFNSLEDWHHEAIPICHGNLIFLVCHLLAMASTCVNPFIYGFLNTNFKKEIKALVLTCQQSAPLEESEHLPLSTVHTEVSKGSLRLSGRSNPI

`NCCN(CCNC(=O)CCCC(=O)/N=C(/N)NCCC[C@@H](NC(=O)C(c1ccccc1)c1ccccc1)C(=O)NCc1ccc(O)cc1)CCNC(=O)CCCC(=O)/N=C(/N)NCCC[C@@H](NC(=O)C(c1ccccc1)c1ccccc1)C(=O)NCc1ccc(O)cc1`: the Kb worked out at 73 nM in assay [1] and 4.2 nM in assay [2]. The pKi was < 5.30 in assay [3], 6.41 in assay [4], 7.52 in assay [5] and 6.21 in assay [6].
Take `NCCN(CCNC(=O)CCC(=O)NCCOCCOCCNC(=O)/N=C(/N)NCCC[C@@H](NC(=O)C(c1ccccc1)c1ccccc1)C(=O)NCc1ccc(CNC(N)=O)cc1)CCNC(=O)CCC(=O)NCCOCCOCCNC(=O)/N=C(/N)NCCC[C@@H](NC(=O)C(c1ccccc1)c1ccccc1)C(=O)NCc1ccc(CNC(N)=O)cc1`: the pKi in assay [7] is 6.68; in assay [3], < 5.30; in assay [4], 6.54; in assay [5] it was 6.64; in assay [6], 5.40. Moreover, the figures for the antagonist dissociation constant (Kb) in assay [1] and in assay [2] were 96 nM and 4.2 nM, respectively.
In the case of `NCCN(CCNC(=O)CCC(=O)NCCOCCOCCNC(=O)/N=C(/N)NCCC[C@@H](NC(=O)C(c1ccccc1)c1ccccc1)C(=O)NCc1ccc(O)cc1)CCNC(=O)CCC(=O)NCCOCCOCCNC(=O)/N=C(/N)NCCC[C@@H](NC(=O)C(c1ccccc1)c1ccccc1)C(=O)NCc1ccc(O)cc1`, the pKi is 7.43 in assay [7]; < 5.30 in assay [3]; 6.33 in assay [4]; 7.60 in assay [5]; 5.74 in assay [6]. The antagonist dissociation constant (Kb) in assay [1] came to 41 nM; in assay [2] it was 1.1 nM.
For the compound `N/C(=N/C(=O)CCCCCCC(=O)/N=C(\N)NCCC[C@@H](NC(=O)C(c1ccccc1)c1ccccc1)C(=O)NCc1ccc(O)cc1)NCCC[C@@H](NC(=O)C(c1ccccc1)c1ccccc1)C(=O)NCc1ccc(O)cc1`, the antagonist equilibrium constant (Kb) in assay [1] is 98 nM; in assay [2] it was 3.5 nM.
Regarding `NCCN(CCNC(=O)CCCC(=O)NCCOCCOCCNC(=O)/N=C(/N)NCCC[C@@H](NC(=O)C(c1ccccc1)c1ccccc1)C(=O)NCc1ccc(O)cc1)CCNC(=O)CCCC(=O)NCCOCCOCCNC(=O)/N=C(/N)NCCC[C@@H](NC(=O)C(c1ccccc1)c1ccccc1)C(=O)NCc1ccc(O)cc1`, the pKi in assay [7] is 7.30; in assay [3] it was < 5.30; in assay [4] it was 6.54; in assay [5] it was 7.54; in assay [6] it was 5.82. Also, the Kb in assay [1] came to 44 nM.
Consider `NCCN(CCNC(=O)CCC(=O)NCCCCCCNC(=O)/N=C(/N)NCCC[C@@H](NC(=O)C(c1ccccc1)c1ccccc1)C(=O)NCc1ccc(O)cc1)CCNC(=O)CCC(=O)NCCCCCCNC(=O)/N=C(/N)NCCC[C@@H](NC(=O)C(c1ccccc1)c1ccccc1)C(=O)NCc1ccc(O)cc1`, for which, in assay [1], the Kb is 33 nM. In addition, the pKi in assay [3] was < 5.30; in assay [4], 6.57; in assay [5], 7.40; in assay [6], 5.89.
Consider `NCCC(=O)NCCNC(=O)CCC(=O)NCCNC(=O)CCC(=O)NCCNC(=O)/N=C(\N)NCCC[C@H](NC(=O)C(c1ccccc1)c1ccccc1)C(=O)NCc1ccc(CNC(N)=O)cc1`, for which, in assay [1], the antagonist equilibrium constant (Kb) is > 5000 nM. Further, the pKi in assay [3] is < 5.30; in assay [4], 5.46; in assay [5], < 5.30; in assay [6] it was < 5.30.
As for `CCC(=O)NCCN(CCNC(=O)c1ccc(C(=O)NCCOCCOCCNC(=O)/N=C(/N)NCCC[C@@H](NC(=O)C(c2ccccc2)c2ccccc2)C(=O)NCc2ccc(O)cc2)cc1)CCNC(=O)c1ccc(C(=O)NCCOCCOCCNC(=O)/N=C(/N)NCCC[C@@H](NC(=O)C(c2ccccc2)c2ccccc2)C(=O)NCc2ccc(O)cc2)cc1`, the pKi in assay [7] was 6.96; in assay [3] it was < 5.30; in assay [4], 6.39; in assay [5], 7.19; in assay [6], < 5.30. For the same compound, in assay [1], the Kb was 36 nM.
Regarding `NCCOCCOCCNC(=O)/N=C(/N)NCCC[C@H](NC(=O)C(c1ccccc1)c1ccccc1)C(=O)NCc1ccc(CNC(N)=O)cc1`, the Kb in assay [1] and in assay [2] was > 5000 nM in each case. In addition, the pKi in assay [4] and in assay [5] was < 5.30 throughout.
On to `NCCN(CCNC(=O)CCC(=O)NCCOCCOCCNC(=O)/N=C(/N)NCCC[C@H](NC(=O)C(c1ccccc1)c1ccccc1)C(=O)NCc1ccc(CNC(N)=O)cc1)CCNC(=O)CCC(=O)NCCOCCOCCNC(=O)/N=C(/N)NCCC[C@H](NC(=O)C(c1ccccc1)c1ccccc1)C(=O)NCc1ccc(CNC(N)=O)cc1`, for which the Kb in assay [1] worked out at 140 nM; in assay [2], 110 nM. Also, the pKi was < 5.30 in assay [3], 6.51 in assay [4], 5.51 in assay [5] and 5.96 in assay [6].
Take `N=C(N)NCCC[C@@H](NC(=O)C(c1ccccc1)c1ccccc1)C(=O)NCc1ccc(CNC(=O)NCCCCNC(=O)CCCC(=O)NCCN(CCN)CCNC(=O)CCCC(=O)NCCCCNC(=O)NCc2ccc(CNC(=O)[C@@H](CCCNC(=N)N)NC(=O)C(c3ccccc3)c3ccccc3)cc2)cc1`: the pKi in assay [7] was 6.37; in assay [3], < 5.30; in assay [4], 5.46; in assay [5], 6.48; in assay [6] it was < 5.30. Besides, the results for the Kb in assay [1] and in assay [2] were > 5000 nM and 120 nM, respectively.
Take `NCCN(CCNC(=O)c1ccc(C(=O)NCCOCCOCCNC(=O)/N=C(/N)NCCC[C@@H](NC(=O)C(c2ccccc2)c2ccccc2)C(=O)NCc2ccc(O)cc2)cc1)CCNC(=O)c1ccc(C(=O)NCCOCCOCCNC(=O)/N=C(/N)NCCC[C@@H](NC(=O)C(c2ccccc2)c2ccccc2)C(=O)NCc2ccc(O)cc2)cc1`: the pKi in assay [7] was 7.32; in assay [3], < 5.30; in assay [4], 6.89. Besides, the Kb in assay [1] is 20 nM; in assay [2], 0.25 nM.
In the case of `NCCN(CCNC(=O)CCC(=O)NCCCCCCNC(=O)/N=C(\N)NCCC[C@H](NC(=O)CC1(CC(=O)N2CCN(C3c4ccccc4NC(=O)c4ccccc43)CC2)CCCC1)C(=O)NCCn1c(=O)n(-c2ccccc2)n(-c2ccccc2)c1=O)CCNC(=O)CCC(=O)NCCCCCCNC(=O)/N=C(\N)NCCC[C@@H](NC(=O)C(c1ccccc1)c1ccccc1)C(=O)NCc1ccc(O)cc1` (mixture of isomers), the pKi was 6.59 in assay [7]; < 5.30 in assay [3]; 6.04 in assay [4]; 6.64 in assay [5]; 7.07 in assay [6]. Moreover, the Kb in assay [1] was 72 nM; in assay [2], 1.5 nM.
For the compound `NCCN(CCNC(=O)c1ccc(C(=O)NCCOCCOCCNC(=O)/N=C(/N)NCCC[C@H](NC(=O)C(c2ccccc2)c2ccccc2)C(=O)NCc2ccc(O)cc2)cc1)CCNC(=O)c1ccc(C(=O)NCCOCCOCCNC(=O)/N=C(/N)NCCC[C@H](NC(=O)C(c2ccccc2)c2ccccc2)C(=O)NCc2ccc(O)cc2)cc1`, the Kb in assay [1] is 27 nM. Further, the pKi is < 5.30 in assay [3], 6.59 in assay [4], < 5.30 in assay [5] and 5.85 in assay [6].
In the case of `NCCOCCOCCNC(=O)CCC(=O)NCCNC(=O)/N=C(\N)NCCC[C@H](NC(=O)C(c1ccccc1)c1ccccc1)C(=O)NCc1ccc(CNC(N)=O)cc1`, the antagonist equilibrium constant (Kb) in assay [1] is > 5000 nM. For the same compound, the pKi is < 5.30 in assay [3], 5.49 in assay [4], < 5.30 in assay [5] and < 5.30 in assay [6].

As a reminder, the Kb is the affinity of an antagonist, worked out from how it opposes an agonist. Usually pKi stands for the negative decadic logarithm of the Ki, by convention in mol/L. Higher therefore signals a low Ki.
